{
  "source": "patent US6479054B1",
  "about": "“Process for obtaining genistin-rich isoflavone composition” (Showa Sangyo Co., Ltd., priority 1998, dated 2002)",
  "test": "Solubility of genistin in isoflavone containing eluate as a function of pH (FIG. 1)",
  "assay_type": "physicochemical",
  "excerpt": "Concentrations of isoflavones in a supernatant are shown, making each isoflavone concentration at the time of elution 100.).",
  "data": [
    {"smiles": "O=c1c(-c2ccc(O)cc2)coc2cc(O[C@@H]3O[C@H](CO)[C@@H](O)[C@H](O)[C@H]3O)cc(O)c12", "note": "[genistin]", "values": [
      {"measurement": "solubility of genistin in an isoflavone containing eluate", "setting": "pHs of not less than 10", "result": "extremely high"},
      {"measurement": "solubility of genistin in an isoflavone containing eluate", "setting": "pHs of not more than 9.5", "result": "extremely low"}
    ]}
  ]
}
